pIC50: −log10 of the molar value. Where two headings read alike, the source gives them in different places. Blank lines part the entries; values can stand above or below the compound they belong to.
Assays:
IRAK4 [1] = target: T1, IRAK4 (Homo sapiens, UniProt Q9NWZ3); assay type: cell-based; set-up: endogenous in cells; host or cells: OCI-LY3; conditions: read-out: OCI-LY3 DC50
T1 sequence (Q9NWZ3 1-460): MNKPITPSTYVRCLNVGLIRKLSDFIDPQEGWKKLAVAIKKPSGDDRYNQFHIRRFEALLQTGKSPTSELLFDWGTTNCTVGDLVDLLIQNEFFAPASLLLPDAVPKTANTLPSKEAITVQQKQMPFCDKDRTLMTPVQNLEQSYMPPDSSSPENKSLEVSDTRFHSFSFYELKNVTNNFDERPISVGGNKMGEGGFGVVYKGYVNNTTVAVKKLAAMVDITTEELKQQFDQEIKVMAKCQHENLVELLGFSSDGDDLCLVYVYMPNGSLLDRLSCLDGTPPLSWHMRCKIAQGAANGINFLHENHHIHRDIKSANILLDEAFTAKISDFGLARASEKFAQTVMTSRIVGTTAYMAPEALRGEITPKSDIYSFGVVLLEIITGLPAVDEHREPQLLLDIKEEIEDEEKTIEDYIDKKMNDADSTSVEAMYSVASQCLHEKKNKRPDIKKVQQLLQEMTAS

IRAK4 [2] = target: T1, IRAK4; experiment: Degradation of IRAK4 in SU-DHL-2 cells (flow cytometry); assay type: cell-based; set-up: The degradation level of IRAK4 protein in SU-DHL-2 cell line by the compounds was detected by flow cytometry; endogenous in cells; host or cells: SU-DHL-2; OCI-LY3
Method: The degradation level of IRAK4 protein in SU-DHL-2 cell line by the compounds was detected by flow cytometry.
Step 2: On day 1, the cells were seeded at a density of 2 × 10^5 cells per well in 100 µL in a 96-well plate. The compounds were dissolved in DMSO to a final concentration of 10 mM, and then diluted with culture medium at a 1:5 concentration gradient to prepare 10 concentrations. The diluted solutions were added to the cells to obtain a maximum final concentration of 2 µM. Wells containing cells treated with 0.1% DMSO served as the […] The cells were incubated at 37°C in a 5% CO2 incubator for 24 hours.
Step 3: After centrifugation, the cells were washed with FACS buffer. The cells were stained for viability discrimination using the LIVE/DEAD™ Fixable Blue Dead Cell Stain Kit, and surface staining of monocytes was performed with PE Mouse Anti-Human CD14, followed by incubation at 4°C for 30 minutes.
Step 4: After centrifugation, the cells were washed with FACS buffer. Fix buffer I, equal in volume to the cultured cells, was added, and the cells were fixed at 37°C for 10 minutes.
Step 5: After centrifugation, the cells were washed with FACS buffer. 150 µL of Perm III reagent was added, and the cells were incubated at 4°C for 30 minutes to permeabilize the membranes. After centrifugation, the cells were washed with FACS buffer.
Flow cytometry analysis was performed using a flow cytometer.
The flow cytometry data were analyzed using Flowjo software. Data presentation and DC50 (half-maximal degradation concentration) calculation were performed using Prism 8.0.2 (GraphPad).

IL-6 secretion = experiment: Inhibition of induced IL-6 secretion in human PBMCs (CBA); assay type: cell-based; conditions: PBMC
Method: (§1) The effect of PROTAC small molecules on inflammatory factors in PBMCs downstream of IRAK4 induced by TLR and IL-1 was detected based on the CBA (cytometric bead array) method.
(§2) Step 2: The density of PBMCs was adjusted to 1 E6/mL, and 150 µL of PBMCs in 1640 complete medium were seeded into a 96-well plate, followed by incubation at 37°C for 1 hour.
(§3) Step 3: 50 µL of serially diluted small molecule (working concentration: 10000 nM, 1:3 dilution) drugs were inoculated into the plate in a 37°C incubator for 8 hours.
(§4) Step 4: 10 µL of stimulants were added respectively, with final concentrations of 100 ng/mL for LPS, 1 µg/mL for R848, and 100 ng/mL for IL-1β.
(§5) Step 5: CBA assay. The concentrations of IL-6 and TNF-α in the cell culture supernatant were determined using Hu IL-6 CBA Flex Set A7 and Hu TNF- CBA Flex Set D9.
(§6) Step 6: Standard samples were prepared: 2500 pg/mL, 1250 pg/mL,...0. A 1:2 serial dilution was performed to obtain 10 concentrations.
(§7) Step 7: The mixed capture beads were resuspended in capture bead diluent (1:50), and cell culture supernatant (50 µL) was added, followed by incubation at room temperature for 10 minutes.
(§8) Step 8: The detection reagent prepared with detection diluent was added, and the mixture was incubated in the dark at room temperature for 3 hours. At the end of incubation, the samples were washed once with wash buffer and resuspended for detection.
(§9) The concentrations of IL-6 and TNFα were calculated using the standard curve method. Data presentation and IC50 calculation were performed using Prism 8.0.2.

TNFα secretion = experiment: Inhibition of induced TNFα secretion in human PBMCs (CBA); assay type: cell-based; conditions: PBMC
Method: as §1, §2, §3, §4, §5, §6, §7, §8, §9

[3] = Dog pharmacokinetics, oral gavage (Experiment 3); assay type: in vivo; conditions: Beagle dogs, oral gavage 2.5 mg/kg, plasma
Method: Healthy Beagle dogs, male, weighing about 8-10 kg, 3 animals per group.
The animals were not fasted and had free access to water.
Venous blood (0.5-0.8 mL) was collected at 15 minutes, 30 minutes, 1 hour, 2 hours, 4 hours, 8 hours, and 24 hours after oral gavage administration, placed in K2EDTA tubes, and centrifuged at 4°C to separate plasma. The concentration of the compound in plasma was determined by liquid chromatography-tandem mass spectrometry.
The main pharmacokinetic parameters were calculated using WinNonlin. […] Table 8. Pharmacokinetic parameters of some compounds of the present disclosure administered orally to dogs

[4] = Mouse pharmacokinetics, oral (Experiment 1); assay type: in vivo, C57BL/6 mice; conditions: mice, PO 100 mg/kg, fasted overnight, plasma
Method: C57BL/6 mice were used as test animals to study the pharmacokinetic behavior of the compounds of the present disclosure in mouse plasma after oral administration at a dose of 100 mg/kg.
C57BL/6, male, transferred from the animal repository of the laboratory institution (999M-018).
Three male C57BL/6 mice were fasted overnight (10-14 hours) with free access to water one day before administration. The mice were fed 4 hours after administration. The dose for PO administration was 100 mg/kg, with an administration volume of 20 mL/kg.
After administration, blood samples (0.03 mL) were collected from the mice via venipuncture at 0.083, 0.25, 0.5, 1, 2, 4, 8, and 24 hours. The samples were placed in EDTA-K2 tubes and centrifuged at 6800 rpm for 5 minutes at 2-8°C. The plasma was separated and stored at -80°C.
• 1) 10 µL of plasma sample was added to 200 µL of methanol for precipitation. After mixing, the mixture was centrifuged at 18000 g for 10 minutes. • 2) The processed supernatant solution was taken for LC/MS/MS analysis to determine the concentration of the test compound.
• Liquid phase conditions: Shimadzu LC-30AD pump • Mass spectrometry conditions: AB Sciex API 5500 mass spectrometer • Chromatographic column: Phenomenex Kinetex 2.6 µm C18 50 3.0 mm • Mobile phase: Solution A was 0.1% formic acid in water, and solution B was 0.1% formic acid in acetonitrile • Flow rate: 0.6 mL/min • Elution time: Gradient elution for 0-1.6 minutes.
The main pharmacokinetic parameters were calculated using WinNonlin 8.0.

[5] = read-out: SU-DHL-2 DC50; SU-DHL-2 cells, 24 hours incubation
[6] = SU-DHL-2 cells, 24 hours incubation; read-out: SU-DHL-2 DC50
[7] = IL-1β 100 ng/mL, read-out: IC50 of compounds against induced secretion, IL-6, IL-1β
[8] = LPS 100 ng/mL, read-out: IC50 of compounds against induced secretion, IL-6, LPS
[9] = R848 1 µg/mL, read-out: IC50 of compounds against induced secretion, IL-6, R848
[10] = IL-1β 100 ng/mL, read-out: IC50, TNFα secretion induced by IL-1β
[11] = LPS 100 ng/mL, read-out: IC50, TNFα secretion induced by LPS
[12] = R848 1 µg/mL, read-out: IC50, TNFα secretion induced by R848

Compound: Cn1c(=O)n(C2CCC(=O)NC2=O)c2cccc(C#CCOC(C)(C)C(=O)N3CCC4(CC3)CC(n3cc(NC(=O)c5cnn6ccc(N7C[C@H]8C[C@@H]7CO8)nc56)c(C(F)F)n3)C4)c21 (stereo partly shown) [Example 10]
- DC50 (IRAK4 [1]; OCI-LY3 cells): 13 nM
- DC50 (IRAK4 [2]; [5]): 17 nM

Compound: Cn1c(=O)n(C2CCC(=O)NC2=O)c2cccc(C#CCOCC3CC(N4CCC5(CC4)CC(n4cc(NC(=O)c6cnn7ccc(N8C[C@H]9C[C@@H]8CO9)nc67)c(C(F)F)n4)C5)C3)c21 (stereo partly shown) [Example 9]
- DC50 (IRAK4 [1]; OCI-LY3 cells): 2.3 nM
- DC50 (IRAK4 [2]; [6]): 2.7 nM

Compound: Cn1c(=O)n(C2CCC(=O)NC2=O)c2cccc(C#CCOC3CCN(C(=O)N4CCC5(CC4)CC(n4cc(NC(=O)c6cnn7ccc(N8C[C@H]9C[C@@H]8CO9)nc67)c(C(F)F)n4)C5)CC3)c21 (stereo partly shown) [Example 13]
- pIC50 (IL-6 secretion; [7]): 7.88
- pIC50 (IL-6 secretion; [8]): 7.71
- pIC50 (IL-6 secretion; [9]): 8.00
- pIC50 (TNFα secretion; [10]): 7.89
- pIC50 (TNFα secretion; [11]): 7.65
- pIC50 (TNFα secretion; [12]): 7.70
- AUC(0-t) at 24 h [3]: 521 ng·h/mL
- Cmax [3]: 102 ng/mL
- MRT inf [3]: 4.5 h
- half-life [3]: 2.1 h
- AUC(0-inf) [4]: 19200 ng·h/mL
- AUC(0-t) at 24 h [4]: 16300 ng·h/mL
- Cmax [4]: 2160 ng/mL
- MRT inf [4]: 10.9 h
- Tmax [4]: 1 h
- half-life [4]: 7.6 h

Compound: Cn1c(=O)n(C2CCC(=O)NC2=O)c2cccc(C#CCOCCN3CCC4(CC3)CC(n3cc(NC(=O)c5cnn6ccc(N7C[C@H]8C[C@@H]7CO8)nc56)c(C(F)F)n3)C4)c21 (stereo partly shown) [Example 1]
- DC50 (IRAK4 [1]; OCI-LY3 cells): 0.4 nM
- DC50 (IRAK4 [2]; [6]): 1.4 nM

- DC50 (IRAK4 [1]): 0.4 nM
- DC50 (IRAK4 [2]; read-out: SU-DHL-2 DC50): 1.1 nM
Compound: Cn1c(=O)n(C2CCC(=O)NC2=O)c2cccc(C#CCOCCCN3CCC4(CC3)CC(n3cc(NC(=O)c5cnn6ccc(N7C[C@H]8C[C@@H]7CO8)nc56)c(C(F)F)n3)C4)c21 (stereo partly shown) [Example 2]

Compound: Cn1c(=O)n(C2CCC(=O)NC2=O)c2cccc(C#CCO[C@H]3C[C@H](CN4CCC5(CC4)CC(n4cc(NC(=O)c6cnn7ccc(N8C[C@H]9C[C@@H]8CO9)nc67)c(C(F)F)n4)C5)C3)c21 (stereo partly shown) [Example 29]
- DC50 (IRAK4 [1]; OCI-LY3 cells): 1 nM
- DC50 (IRAK4 [2]; [5]): 3 nM

- DC50 (IRAK4 [1]): 8 nM
- DC50 (IRAK4 [2]; read-out: SU-DHL-2 DC50): 11 nM
Compound: Cn1c(=O)n(C2CCC(=O)NC2=O)c2cccc(C#CCN3CCC(CN4CCC5(CC4)CC(n4cc(NC(=O)c6cnn7ccc(N8C[C@H]9C[C@@H]8CO9)nc67)c(C(F)F)n4)C5)CC3)c21 (stereo partly shown) [Example 3]

Compound: Cn1c(=O)n(C2CCC(=O)NC2=O)c2cccc(C#CCCC(=O)N3CCC4(CC3)CC(n3cc(NC(=O)c5cnn6ccc(N7C[C@H]8C[C@@H]7CO8)nc56)c(C(F)F)n3)C4)c21 (stereo partly shown) [Example 24]
- DC50 (IRAK4 [1]; OCI-LY3 cells): 3 nM
- DC50 (IRAK4 [2]; [6]): 4 nM

- DC50 (IRAK4 [1]): 5 nM
- DC50 (IRAK4 [2]; read-out: SU-DHL-2 DC50): 8 nM
Compound: Cn1c(=O)n(C2CCC(=O)NC2=O)c2cccc(C#CCOCCCCN3CCC4(CC3)CC(n3cc(NC(=O)c5cnn6ccc(N7C[C@H]8C[C@@H]7CO8)nc56)c(C(F)F)n3)C4)c21 (stereo partly shown) [Example 4]

Compound: Cn1c(=O)n(C2CCC(=O)NC2=O)c2cccc(C#CCO[C@H]3C[C@@H](CN4CCC5(CC4)CC(n4cc(NC(=O)c6cnn7ccc(N8C[C@H]9C[C@@H]8CO9)nc67)c(C(F)F)n4)C5)C3)c21 (stereo partly shown) [Example 30]
- DC50 (IRAK4 [1]; OCI-LY3 cells): 1 nM
- DC50 (IRAK4 [2]; [5]): 3 nM

Compound: Cn1c(=O)n(C2CCC(=O)NC2=O)c2cccc(C#CCCCN3CCC4(CC3)CC(n3cc(NC(=O)c5cnn6ccc(N7C[C@H]8C[C@@H]7CO8)nc56)c(C(F)F)n3)C4)c21 (stereo partly shown) [Example 17]
- DC50 (IRAK4 [1]; OCI-LY3 cells): 1 nM
- DC50 (IRAK4 [2]; [6]): 1 nM

Compound: Cn1c(=O)n(C2CCC(=O)NC2=O)c2cccc(C#CCO[C@H]3CC[C@H](CN4CCC5(CC4)CC(n4cc(NC(=O)c6cnn7ccc(N8C[C@H]9C[C@@H]8CO9)nc67)c(C(F)F)n4)C5)CC3)c21 (stereo partly shown) [Example 31]
- pIC50 (IL-6 secretion; [7]): 8.03
- pIC50 (IL-6 secretion; [8]): 8.34
- pIC50 (IL-6 secretion; [9]): 9.05
- pIC50 (TNFα secretion; [10]): 8.68
- pIC50 (TNFα secretion; [11]): 8.11
- pIC50 (TNFα secretion; [12]): 8.09
- AUC(0-t) at 24 h [3]: 198 ng·h/mL
- Cmax [3]: 15 ng/mL
- MRT inf [3]: 12 h
- half-life [3]: 8 h
- AUC(0-inf) [4]: 5460 ng·h/mL
- AUC(0-t) at 24 h [4]: 4890 ng·h/mL
- Cmax [4]: 364 ng/mL
- MRT inf [4]: 10.4 h
- Tmax [4]: 3.3 h
- half-life [4]: 7.3 h
